In patent US8809347B2, “Bicyclic aryl and bicyclic heteroaryl substituted triazoles useful as AXL inhibitors” (Rigel Pharmaceuticals, Inc., priority 2006, dated 2014) one finds IC50 data, which are given here for 16 molecules.

The target of the assay is T1, Axl (Homo sapiens, UniProt P30530).
T1 construct: Cells: Hela cells; endogenous in cells; host or cells: HeLa cells
T1 sequence (P30530 26-894): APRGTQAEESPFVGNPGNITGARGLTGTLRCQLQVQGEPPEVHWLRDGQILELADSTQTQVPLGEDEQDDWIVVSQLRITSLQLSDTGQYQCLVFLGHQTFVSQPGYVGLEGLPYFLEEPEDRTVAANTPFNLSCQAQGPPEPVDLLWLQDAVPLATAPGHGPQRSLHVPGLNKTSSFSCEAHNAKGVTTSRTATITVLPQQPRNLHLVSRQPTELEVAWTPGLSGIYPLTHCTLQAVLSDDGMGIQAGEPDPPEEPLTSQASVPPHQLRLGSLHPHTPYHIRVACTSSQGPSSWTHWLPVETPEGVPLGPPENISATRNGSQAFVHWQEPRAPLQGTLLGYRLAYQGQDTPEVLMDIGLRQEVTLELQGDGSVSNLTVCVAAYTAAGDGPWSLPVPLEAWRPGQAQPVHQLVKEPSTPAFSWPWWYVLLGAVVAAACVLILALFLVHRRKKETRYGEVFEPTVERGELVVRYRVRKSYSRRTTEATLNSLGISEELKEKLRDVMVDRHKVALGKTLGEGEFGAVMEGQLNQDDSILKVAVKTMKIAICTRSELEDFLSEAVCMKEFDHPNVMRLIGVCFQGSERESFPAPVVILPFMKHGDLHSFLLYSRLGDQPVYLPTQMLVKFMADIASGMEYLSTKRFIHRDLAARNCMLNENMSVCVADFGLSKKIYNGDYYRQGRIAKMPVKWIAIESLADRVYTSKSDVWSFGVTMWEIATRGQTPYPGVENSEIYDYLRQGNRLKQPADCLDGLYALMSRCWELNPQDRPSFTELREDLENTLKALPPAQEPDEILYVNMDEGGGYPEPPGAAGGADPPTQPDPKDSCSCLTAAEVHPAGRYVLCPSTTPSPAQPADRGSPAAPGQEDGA
Description: Phospho-Akt in-cell Western assay (inhibition of Axl activity). The class given is cell-based. Conditions: Hela cells; 1 hr pre-treatment; stimulation by Axl-antibody cross-linking; phospho-Akt chemiluminescence normalized to relative cell number. On the procedure: The compounds of the invention were tested in the following assay for their ability to inhibit Axl activity.
Phospho-Akt in-Cell Western Assay
• Cell culture plate: 96 well assay plate (Corning 3610), white, clear bottom, tissue-culture treated. • Cells: Hela cells. • Starvation medium: For Axl stimulation: 0.5% FCS (fetal calf serum) in DMEM, plus Axl/Fc (extracellular domain of AXL fused to immunoglobulin Fc region) (R&D, 154-AL) 500 ng/mL. • For EGF (epidermal growth factor) stimulation: 0.5% FCS in DMEM (Dulbecco's modified Eagles medium). • Poly-L-Lysine 0.01% solution (the working solution): […], dilute In PBS (phosphate buffered saline). • Axl antibody cross-linking: • 1st: Mouse anti-Axl (R&D, MAB154). • 2nd: Biotin-SP-conjugated AffiniPure goat anti-mouse IgG (H+ L) (Jackson ImmunoResearch #115-065-003). • Fixing buffer: 4% formaldehyde in PBS. • Wash buffer: 0.1% TritonX-100 in PBS. • Quenching buffer: 3% H2O2, 0.1% Azide in wash buffer, Azide and hydrogen peroxide (H2O2) are added fresh. • Blocking buffer: 5% BSA in TBST (tris buffered saline plus 0.1% Tween 20). • Primary antibody: Rabbit anti-human Phospho-Akt antibody (Cell Signaling 9271): 1×250 diluted in blocking buffer. • Secondary antibody: HRP (horse radish peroxidase)-conjugated Goat anti-Rabbit secondary, stock solution: Jackson ImmunoResearch (Goat anti-Rabbit HRP, #111-035-144) 1:1 diluted in glycerol, store at −20° C. The working solution: 1×2000 dilution of stock in blocking buffer. • Chemiluminescent working solution (Pierce, 37030): SuperSignal ELISA (enzyme linked immunosorbant assay) Pico Chemiluminescent substrate. • Crystal Violet solution: Stock: 2.5% Crystal violet in methanol, filtered and kept at ambient temperature. The working solution: dilute the stock 1:20 with PBS immediately before use. • 10% SDS: working solution: 5% SDS (sodium dodecylsulfate), diluted in PBS Methods: Day 1:
A 96 well TC (tissue culture treated) plate was coated with 10 μg/mL poly-L-Lysine at 37° C. for 30 min, washed twice with PBS, and air-dried for 5 minutes before cells were added. Hela cells were seeded at 10,000 cells/well and the cells were starved in 100 μL starvation medium containing Axl/Fc for 24 hrs.
The cells were pre-treated with test compounds by adding 100 μL of 2× test compound to the starvation medium on the cells. The cells were incubated at 37° C. for 1 hr before stimulation.
The cells were stimulated by Axl-antibody cross-linking as follows: A 5× 1st/2nd Axl antibody mixture was made (37.5 μg/mL 1st/100 μg/mL 2nd) in starvation medium and nutated at 4° C. with thorough mixing for 1-2 hours for clustering. The resulting mix was warmed to 37° C. 50 μL of 5× Axl 1st/2nd of antibody cluster was added to the cells and the cells were incubated at 37° C. for 5 min.
After 5 minutes stimulation, the plate was flicked to remove medium and the plate was tapped onto paper towels. Formaldehyde (4.0% in PBS, 100 μL) was added to fix the cells and the cells were incubated at ambient temperature for 20 min without shaking.
The cells were washed with a plate washer buffer to remove the formaldehyde solution. The plate was flicked to removed excess wash buffer and tapped onto paper towels. Quenching buffer (100 μL) was added to each well and the cells were incubated at ambient temperature for 20 minutes without shaking.
The cells were washed with a plate washer buffer to remove the quenching buffer. Blocking buffer (100 μL) was added and the cells were incubated at ambient temperature for at least an hour with gentle shaking.
The cells were washed with a plate washer buffer and diluted primary antibody (50 μL) was added to each well (blocking buffer was added to the negative control wells instead). The plates were incubated overnight at 4° C. with gentle shaking.
The wash buffer was removed, diluted secondary antibody (100 μL) was added, and the cells were incubated at ambient temperature for 1 hour with gentle shaking. […]

A word on the IC50: it is the concentration at which inhibition is half-maximal. As to `Cc1csc2c(-n3nc(Nc4cnc5c(c4)CCC(N4CCCC4)CCC5)nc3N)nc(Cl)nc12` (stereo not shown) [Compound 37, 1-(2-chloro-7-methylthieno[3,2-d]pyrimidin-4-yl)-N^3-(7-(pyrrolidin-1-yl)-5,6,7,8,9,10-hexahydrocycloocta[b]pyridin-3-yl)-1H-1,2,4-triazole-3,5-diamine], the IC50 was below 1000 nM.

For the molecule `Cc1csc2c(-n3nc(Nc4ccc5c(c4)CCCN(C4CC6CCC4C6)CC5)nc3N)nc(Cl)nc12` (stereo not shown) [Compound 38, N^3-(3-(bicyclo[2.2.1]heptan-2-yl)-1,2,3,4,5,6-hexahydrobenzo[d]azocin-8-yl)-1-(2-chloro-7-methylthieno[3,2-d]pyrimidin-4-yl)-1H-1,2,4-triazole-3,5-diamine], the IC50 was below 1000 nM.

For `COc1cc2ncnc(-n3nc(Nc4ccc5c(c4)CCCN(C4CC6CCC4C6)CC5)nc3N)c2cc1OC` (stereo not shown) [Compound 39, N^3-(3-(bicyclo[2.2.1]heptan-2-yl)-1,2,3,4,5,6-hexahydrobenzo[d]azocin-8-yl)-1-(6,7-dimethoxyquinazolin-4-yl)-1H-1,2,4-triazole-3,5-diamine], the IC50 is below 1000 nM.

For `Cc1csc2c(-n3nc(Nc4cnc5c(c4)CCC(N4CCCC4)CCC5)nc3N)ncnc12` (stereo not shown) [Compound 40, 1-(7-methylthieno[3,2-d]pyrimidin-4-yl)-N^3-(7-(pyrrolidin-1-yl)-5,6,7,8,9,10-hexahydrocycloocta[b]pyridin-3-yl)-1H-1,2,4-triazole-3,5-diamine], the IC50 was below 1000 nM.

In the case of `Cc1csc2c(-n3nc(Nc4ccc5c(c4)CCCN(C4CCCC4)CC5)nc3N)ncnc12` [Compound 41, N^3-(3-cyclopentyl-1,2,3,4,5,6-hexahydrobenzo[d]azocin-8-yl)-1-(7-methylthieno[3,2-d]pyrimidin-4-yl)-1H-1,2,4-triazole-3,5-diamine], the half-inhibitory concentration (IC50) was below 1000 nM.

For the molecule `Cc1csc2c(-n3nc(Nc4ccc5c(c4)CCCN(C4CC6CCC4C6)CC5)nc3N)ncnc12` (stereo not shown) [Compound 42, N^3-(3-(bicyclo[2.2.1]heptan-2-yl)-1,2,3,4,5,6-hexahydrobenzo[d]azocin-8-yl)-1-(7-methylthieno[3,2-d]pyrimidin-4-yl)-1H-1,2,4-triazole-3,5-diamine], the half-maximal inhibitory concentration (IC50) is below 1000 nM.

Take `Cc1csc2c(-n3nc(Nc4cnc5c(c4)CCC(NC4CCCCC4)CCC5)nc3N)ncnc12` (stereo not shown) [Compound 43, N^3-(7-(cyclohexylamino)-5,6,7,8,9,10-hexahydrocycloocta[b]pyridin-3-yl)-1-(7-methylthieno[3,2-d]pyrimidin-4-yl)-1H-1,2,4-triazole-3,5-diamine]: the IC50 is below 1000 nM.

`Cc1csc2c(-n3nc(Nc4cnc5c(c4)CCC(N4CCN(C)CC4)CCC5)nc3N)ncnc12` (stereo not shown) [Compound 44, N^3-(7-(4-methylpiperazin-1-yl)-5,6,7,8,9,10-hexahydrocycloocta[b]pyridin-3-yl)-1-(7-methylthieno[3,2-d]pyrimidin-4-yl)-1H-1,2,4-triazole-3,5-diamine]: the IC50 is below 1000 nM.

As for `Nc1nc(Nc2ccc(N3CCC(N4CCCC4)CC3)c(F)c2)nn1-c1cc(-c2ccccc2)c2c(n1)CCCCCC2` [Compound 45, N^3-(3-fluoro-4-(4-(pyrrolidin-1-yl)piperidin-1-yl)phenyl)-1-(4-phenyl-5,6,7,8,9,10-hexahydrocycloocta[b]-pyridin-2-yl)-1H-1,2,4-triazole-3,5-diamine], the IC50 lay within 1000 to 10000 nM.

Take `CN1CCN(c2ccc(Nc3nc(N)n(-c4cc(-c5ccccc5)c5c(n4)CCCCCC5)n3)cc2)CC1` [Compound 46, N^3-(4-(4-methylpiperazin-1-yl)phenyl)-1-(4-phenyl-5,6,7,8,9,10-Hexahydrocycloocta[b]-pyridin-2-yl)-1H-1,2,4-triazole-3,5-diamine]: the IC50 lay in the range of 1000 to 10000 nM.

`Nc1nc(Nc2ccc(OCCN3CCCC3)cc2)nn1-c1cc(-c2ccccc2)c2c(n1)CCCCCC2` [Compound 47, N^3-(4-(2-(pyrrolidin-1-yl)ethoxy)phenyl)-1-(4-phenyl-5,6,7,8,9,10-hexahydrocycloocta[b]-pyridin-2-yl)-1H-1,2,4-triazole-3,5-diamine]: the 50% inhibitory concentration (IC50) fell in the range of 1000 to 10000 nM.

As to `Cc1csc2c(-n3nc(Nc4ccc5c(c4)C(=O)NCCCC5)nc3N)nc(Cl)nc12` [Compound 48, N^3-(1-oxo-1,2,3,4,5,6-hexahydrobenzo[c]azocin-9-yl)-1-(2-chloro-7-methylthieno[3,2-d]pyrimidin-4-yl)-1H-1,2,4-triazole-3,5-diamine], the IC50 is below 1000 nM.

On to `Cc1csc2c(-n3nc(Nc4ccc5c(c4)C(=O)NCCCC5)nc3N)ncnc12` [Compound 49, N^3-(1-oxo-1,2,3,4,5,6-hexahydrobenzo[c]azocin-9-yl)-1-(7-methylthieno[3,2-d]pyrimidin-4-yl)-1H-1,2,4-triazole-3,5-diamine], for which the IC50 was in the range of 1000 to 10000 nM.

For the molecule `COc1cc2ncnc(-n3nc(Nc4ccc5c(c4)C(=O)NCCCC5)nc3N)c2cc1OC` [Compound 50, N^3-(1-oxo-1,2,3,4,5,6-hexahydrobenzo[c]azocin-9-yl)-1-(6,7-dimethoxyquinazolin-4-yl)-1H-1,2,4-triazole-3,5-diamine], the IC50 is below 1000 nM.

On to `Nc1nc(Nc2ccc(N3CCC(N4CCCCCC4)CC3)nc2)nn1-c1ncnc2c1CCCCCC2` [Compound 51, N^3-(6-(4-(azepan-1-yl)piperidin-1-yl)pyridin-3-yl)-1-(5,6,7,8,9,10-hexahydrocycloocta[d]pyrimidin-4-yl)-1H-1,2,4-triazole-3,5-diamine], for which the IC50 is below 1000 nM.

Regarding `Nc1nc(Nc2ccc(N3CCC(CN4CCCC4)CC3)nc2)nn1-c1ncnc2c1CCCCCC2` [Compound 52, N^3-(6-(4-((pyrrolidin-1-yl)methyl)piperidin-1-yl)pyridin-3-yl)-1-(5,6,7,8,9,10-hexahydrocycloocta[d]pyrimidin-4-yl)-1H-1,2,4-triazole-3,5-diamine], the IC50 is below 1000 nM.
